The values below are quoted from earlier work in US10092545B2, “Nutritional supplements for improving female fertility” (Fairhaven Health, LLC, priority 2016, dated 2018).

The test system of data set [1] is oocyte-specific Pdss2-deficient animals. The note with it: maternal dietary administration.
The next data set has as its system obese women with PCOS. The note with it: administering for as little as two months.
Another data set concerns females. The note with it: females taking myo-inositol.

As for `COC1=C(OC)C(=O)C(C/C=C(\C)CC/C=C(\C)CC/C=C(\C)CC/C=C(\C)CC/C=C(\C)CC/C=C(\C)CC/C=C(\C)CC/C=C(\C)CC/C=C(\C)CCC=C(C)C)=C(C)C1=O` [CoQ10, Coenzyme Q10], the premature ovarian failure result in data set [1] is “could be prevented”.

For `[Cr]` [chromium], the “improvement of insulin sensitivity” value in the data set on obese women with PCOS is “more than 30%”.

For the compound `O[C@H]1[C@H](O)[C@@H](O)[C@H](O)[C@@H](O)[C@H]1O` [myo-inositol], in the data set on females, the insulin sensitivity entry is “increased” and the serum testosterone level entry is “decreased”.

With `COc1ccc2[nH]cc(CCNC(C)=O)c2c1` [melatonin], in the data set with infertile women, the “fertilization and pregnancy rates” value is reported as “elevates”; the intra-follicular melatonin concentrations entry is recorded as “increases”; the intra-follicular oxidative damage result is on record as “reduces”.
